Measurements published in patent US20160311886A1, “Constructs Binding to Phosphatidylserine and Their Use in Disease Treatment and Imaging” (Board of Regents, The University of Texas System, priority 2005, published 2016).

What was measured:
[1] = system: ABAE cells; assay: Induction of PS exposure, 125I-annexin V binding; format: cell-based, bovine
Procedure: (§1) All reagents were diluted in medium containing 10% serum and incubated with the cells at 37° C. for 24 h.
(§2) To study the effect of hypoxia, cells were seeded on 24 well plates and were incubated in a humidified normoxic atmosphere (21% O2, 5% CO2) for 48 h before being transferred to a humidified hypoxic atmosphere (1% O2, 5% CO2, 94% N2) in a sealed chamber (Billups Rothenberg Inc., Del Mar, Ca). Cells were incubated in a hypoxic chamber for 24 h at 37° C. and were then returned to a normoxic environment for 4 h at 37° C. The cells were compared to a parallel culture from an identical passage, seeded on the same day and maintained entirely under normoxic conditions. In some studies, IL-1α (10 ng/ml) and TNFα (20 ng/ml) were added to the medium before transfer to the hypoxic chamber.
(§3) After treatment with the reagents described above, treated and control cells were incubated with 7.1 pmoles of ^125I-labeled annexin V (200 μl/well) in the binding buffer. After 2 h incubation at room temperature, cells were washed extensively and dissolved in 0.5 M of NaOH. The entire volume of 0.5 ml was transferred to plastic tubes and counted in a gamma counter. Non-specific binding was determined in the presence of 5 mM EDTA and was subtracted from experimental values. The results were expressed as net pmoles of cell-bound annexin V, normalized per 1×10^6 cells.
(§4) Maximal binding of annexin V was determined on cells simultaneously treated with actinomycin D and TNFα (50 ng/ml of each component). As has been previously reported, these agents cause apoptosis and PS exposure in 90-100% of endothelial cells (Lucas et al., 1998). Basal binding of ^125I-annexin V to untreated cells was determined in the presence of medium with 10% serum. The amount of ^125I-annexin V that bound to the untreated cultures was subtracted from that in the treated cultures. Exposure of PS was calculated according to the following formula: cell-bound annexin V (pmoles) under experimental conditions divided by maximal annexin V binding (pmoles), multiplied by 100. Each study was performed in duplicate and was performed at least three times. Mean values were calculated. The SE of the mean values from three separate experiments was less than 5%.

[2] = system: bEnd.3 cells; assay: Induction of PS exposure, 125I-annexin V binding; format: cell-based, mouse
Procedure: as §1, §2, §3, §4

[3] = system: ABAE cells with exposed PS; assay: Live-cell binding assay on LPC-treated endothelial cells; format: cell-based, bovine
Procedure: Adult bovine aortic endothelial (ABAE) cells were maintained in DMEM supplemented with 10% FBS and 2 mM L-glutamine. ABAE cells were removed from subconfluent cultures by brief exposure to 0.25% trypsin/0.02% EDTA, and 8-well chamber slides were seeded with 2×10^4 cells/well. Following overnight culture, cells were washed gently with PBS and treated with 200 μM lysophosphatidylcholine (LPC) to induce PS exposure.
PS exposure was determined by immunofluorescence staining. Cells were washed thoroughly in PBS, fixed in 4% paraformaldehyde (w/v), and incubated with a biotin-conjugated anti-mouse secondary antibody. Next, cells were incubated with FITC-conjugated streptavidin (Jackson Immunoresearch) to detect antibody binding. Cells were then permeablized with 0.1% Triton-X100 in PBS and counterstained with Texas Red-conjugated phalloidin (Molecular Probes, Eugene, Oreg.), and 4′, 6-diamidino-2-phenylindole (DAPI; Molecular Probes). Images were captured using a Coolsnap digital camera (Photometrics, Tucson, Ariz.) mounted on a Nikon microscope and processed with MetaVue software (Universal Imaging Corporation, Downingtown, Pa.).
The area of antibody binding was determined using MetaVue image analysis software, which is able to quantify the number of illuminated pixels in an image. Images of FITC fluorescence were used to quantify antibody binding. Corresponding images of DAPI fluorescence were used to normalize the FITC images for the number of cells present in the field. A small FITC/DAPI ratio indicates a small antibody binding area, whereas a large FITC/DAPI ratio indicates a large binding area. The FITC/DAPI ratios were used to determine increases or decreases in antibody binding area relative to a basal amount of antibody binding under the selected conditions. Five images at 200× magnification were used for each analysis. Data are presented as average relative FITC/DAPI ratios with error bars representing the standard deviation.
Cells were then washed, fixed, and stained with fluorescent markers to visualize binding of antibody to the cell surface.

[4] = Binding of ch3G4 and 2aG4 to phospholipid-coated ELISA plates; conditions: vs 3G4
[5] = Phospholipid specificity ELISA; format: binding
Procedure: The specificity of the antibodies was determined by ELISA using plates coated with the following phospholipids: PS, phosphatidylserine; PE, phosphatidylethanolamine; PI, phosphatidylinositol; PA, phosphatidic acid; PG, phosphatidylglycerol; PC, phosphatidylcholine; CL, cardiolipin; and SM, sphingomyelin.

[6] = system: WiDr (colon carcinoma); assay: WiDr colon carcinoma model; format: in vivo, mouse; conditions: 100 μg 3×/week from day 5; preliminary study
Procedure: Treatment was started on day 5, when the tumors were small (10 mice per group). 100 μg of each antibody was injected 3×/week and tumor growth monitored.

[7] = Serum dependence of binding to PS
Procedure: The serum dependence or independence of the antibodies is also set forth in Table 2 (see also, Example XXX).
The 1B9, 2G7 and 7C5 antibodies behave essentially the same. These antibodies recognize only PS and require serum or serum proteins for binding to PS. The binding of 1B9, 2G7 and 7C5 to various phospholipids in the present example was assayed only in the presence of 10% bovine serum, whereas binding of the other antibodies was tested either in the absence or in the presence of serum.

[8] = Hypoxia (1% O2) + TNFα 20 ng/ml
[9] = Hypoxia (1% O2) + IL-1α 10 ng/ml

Molecule: FGF-2: human fibroblast growth factor-2
- 125I-Annexin V (% of Max binding) ([1]; 20 ng/ml, 24 h): 0 % of Max binding
- 125I-Annexin V (% of Max binding) ([2]; 20 ng/ml, 24 h): 0 % of Max binding

Molecule: GM-CSF: cytokine tested on endothelial cells
- binding of 125I-annexin V above the basal level for untreated cells ([1]; ABAE and bEnd.3 cells): did not increase binding

Molecule: IL-6: interleukin-6
- 125I-Annexin V (% of Max binding) ([1]; 20 ng/ml, 24 h): 0 % of Max binding
- 125I-Annexin V (% of Max binding) ([2]; 20 ng/ml, 24 h): 0 % of Max binding

Molecule: IL-8: interleukin-8
- 125I-Annexin V (% of Max binding) ([1]; 20 ng/ml, 24 h): 0 % of Max binding
- 125I-Annexin V (% of Max binding) ([2]; 20 ng/ml, 24 h): 0 % of Max binding

Molecule: IL-10: interleukin-10
- 125I-Annexin V (% of Max binding) ([1]; 20 ng/ml, 24 h): 0 % of Max binding
- 125I-Annexin V (% of Max binding) ([2]; 20 ng/ml, 24 h): 0 % of Max binding

Molecule: Scatter factor: Recombinant hepatocyte growth factor (HGF or scatter factor)
- 125I-Annexin V (% of Max binding) ([1]; 40 ng/ml, 24 h): 0 % of Max binding
- 125I-Annexin V (% of Max binding) ([2]; 40 ng/ml, 24 h): 0 % of Max binding

Molecule: TGF β1: growth factor tested on endothelial cells
- 125I-Annexin V (% of Max binding) ([1]; 20 ng/ml, 24 h): 0 % of Max binding
- 125I-Annexin V (% of Max binding) ([2]; 20 ng/ml, 24 h): 0 % of Max binding

Molecule: TNFα
- 125I-Annexin V (% of Max binding) ([1]; 20 ng/ml, 24 h): 7.4 % of Max binding
- 125I-Annexin V (% of Max binding) [1, 8]: 33.0 % of Max binding
- 125I-Annexin V (% of Max binding) ([2]; 20 ng/ml, 24 h): 13.7 % of Max binding
- 125I-Annexin V (% of Max binding) [2, 8]: 36.0 % of Max binding

Molecule: Thrombin
- 125I-Annexin V (% of Max binding) ([1]; 50 nM, 24 h): 8.8 % of Max binding
- 125I-Annexin V (% of Max binding) ([2]; 50 nM, 24 h): 17.4 % of Max binding

Molecule: VEGF
- 125I-Annexin V (% of Max binding) ([1]; 20 ng/ml, 24 h): 0 % of Max binding
- 125I-Annexin V (% of Max binding) ([2]; 20 ng/ml, 24 h): 0 % of Max binding

B1: IL-1α: Recombinant murine interleukin-1 alpha (protein, UniProt P01582 115-270, looked up)
Interleukin-1 alpha: SAPYTYQSDLRYKLMKLVRQKFVMNDSLNQTIYQDVDKHYLSTTWLNDLQQEVKFDMYAYSSGGDDSKYPVTLKISDSQLFVSAQGEDQPVLLKELPETPKLITGSETDLIFFWKSINSKNYFTSAAYPELFIATKEQSRVHLARGLPSMTDFQIS
- 125I-Annexin V (% of Max binding) ([1]; 10 ng/ml, 24 h): 6.4 % of Max binding
- 125I-Annexin V (% of Max binding) [1, 9]: 26.0 % of Max binding
- 125I-Annexin V (% of Max binding) ([2]; 10 ng/ml, 24 h): 7.5 % of Max binding
- 125I-Annexin V (% of Max binding) [2, 9]: 31.0 % of Max binding

B2: 3G4 Fab′: Monovalent fragment of 3G4 (antibody)
VH: EVQLQQSGPELEKPGASVKLSCKASGYSFTGYNMNWVKQSHGKSLEWIGHIDPYYGDTSYNQKFRGKATLTVDKSSSTAYMQLKSLTSEDSAVYYCVKGGYYGHWYFDVWGAGTTVTVSSATTTAPSVYPLVP
light: DIQMTQSPSSLSASLGERVSLTCRASQDIGSSLNWLQQGPDGTIKRLIYATSSLDSGVPKRFSGSRSGSDYSLTISSLESEDFVDYYCLQYVSSPPTFGAGTKLELKRADAAPTVSIFPPSSEQLTSGGASVVCFLNNFYPKDINVKWKIDGSERQNGVLNSWTDQDSKDSTYSMSSTLTLTKDEYERHNSYTCEATHKTSTSPIVKSFNRNEC
- inhibition of ch3G4/β2GPI binding ([3]; 20 nM ch3G4, 40 nM hβ2GPI): inhibited ch3G4/β2GPI binding to LPC-treated ABAE cells in a concentration-dependent manner
- binding to LPC-treated ABAE cells ([3]; 20 nM, DMEM+10% FBS): negligible
- binding to ABAE cells ([3]; 2 μM, 40 nM hβ2GPI): No binding

B3: 2aG4: Recombinant mouse IgG2a isotype of 3G4; SEQ ID NO:10 and 11 (antibody, listed as Mus musculus)
heavy: MGWTWIFILILSVTTGVHSEVQLQQSGPELEKPGASVKLSCKASGYSFTGYNMNWVKQSHGKSLEWIGHIDPYYGDTSYNQKFRGKATLTVDKSSSTAYMQLKSLTSEDSAVYYCVKGGYYGHWYFDVWGAGTTVTVSSAKTTAPSVYPLAPVCGDTTGSSVTLGCLVKGYFPEPVTLTWNSGSLSSGVHTFPAVLQSDLYTLSSSVTVTSSTWPSQSITCNVAHPASSTKVDKKEPRGPTIKPCPPCKCPAPNLLGGPSVFIFPPKIKDVLMISLSPIVTCVVVDVSEDDPDVQISWFVNNVEVHTAQTQTHREDYNSTLRVVSALPIQHQDWMSGKEFKCKVNNKDLPAPIERTISKPKGSVRAPQVYVLPPPEEEMTKKQVTLTCMVTDFMPEDIYVEWTNNGKTELNYKNTEPVLDSDGSYFMYSKLRVEKKNWVERNSYSCSVVHEGLHNHHTTKSFSRTPGK
light: MDMRAPAQILGFLLLLFPGTRCDIQMTQSPSSLSASLGERVSLTCRASQDIGSSLNWLQQGPDGTIKRLIYATSSLDSGVPKRFSGSRSGSDYSLTISSLESEDFVDYYCLQYVSSPPTFGAGTKLELKRADAAPTVSIFPPSSEQLTSGGASVVCFLNNFYPKDINVKWKIDGSERQNGVLNSWTDQDSKDSTYSMSSTLTLTKDEYERHNSYTCEATHKTSTSPIVKSFNRNEC
- affinity and specificity in PS-ELISA [4]: essentially the same as for 3G4
- Relative Strength of Reactivity on ELISA [5]: PS = PA = PI = PG = CL >> PE
- tumor growth [6]: slowed tumor growth to essentially the same degree
- Serum cofactor? [7]: Yes

B4: nicked hβ2GPI: hβ2GPI cleaved by plasmin at Lys317/Thr318; non-lipid binding form (protein)
chain: GRTCPKPDDLPFSTVVPLKTFYEPGEEITYSCKPGYVSRGGMRKFICPLTGLWPINTLKCTPRVCPFAGILENGAVRYTTFEYPNTISFSCNTGFYLNGADSAKCTEEGKWSPELPVCAPIICPPPSIPTFATLRVYKPSAGNNSLYRDTAVFECLPQHAMFGNDTITCTTHGNWTKLPECREVKCPFPSRPDNGFVNYPAKPTLYYKDKATFGCHDGYSLDGPEEIECTKLGNWSAMPSCKASCKLPVKKATVVYQGERVKIQEKFKNGMLHGDKVSFFCKNKEKKCSYTEDAQCIDGTIEVPKCFKEHSSLAFWKTDASDVKPC
- mediation of ch3G4 binding to ABAE cells with exposed PS ([3]; 2 μg/ml, LPC): not able to mediate binding

B5: IL-1β: Recombinant murine interleukin-1 beta (protein, UniProt P10749 118-269, looked up)
Interleukin-1 beta: VPIRQLHYRLRDEQQKSLVLSDPYELKALHLNGQNINQQVIFSMSFVQGEPSNDKIPVALGLKGKNLYLSCVMKDGTPTLQLESVDPKQYPKKKMEKRFVFNKIEVKSKVEFESAEFPNWYISTSQAEHKPVFLGNNSGQDIIDFTMESVSS
- 125I-Annexin V (% of Max binding) ([1]; 10 ng/ml, 24 h): 5.8 % of Max binding
- 125I-Annexin V (% of Max binding) ([2]; 10 ng/ml, 24 h): 5.5 % of Max binding
